Drawing on patent US9260438B2, “Solid forms of tofacitinib salts” (APOTEX INC., priority 2014, dated 2016), this text covers Solubility for seven compounds.

Each structure is given as a SMILES string. Where a name gives a salt, the structure may show the parent alone.

Series [1] is described as follows: Solubility of solid forms in water (visual dissolution). The settings on record: deionized water added drop-wise with agitation until visual dissolution of the solid; hydrochloride.
A further series in a line: physchem. The settings on record: thermodynamic from solid.

One may read the Solubility as how much of the substance goes into solution per volume. Higher therefore signals a readily soluble substance. In series [1], `C[C@@H]1CCN(C(=O)CC#N)C[C@@H]1N(C)c1ncnc2[nH]ccc12` [Tofacitinib hydrochloride (APO-G), tofacitinib hydrochloride] showed a Solubility of 2000 mg/mL.

In “physchem” (water), `C[C@@H]1CCN(C(=O)CC#N)C[C@@H]1N(C)c1ncnc2[nH]ccc12.O=C(O)CC(O)(CC(=O)O)C(=O)O` [Tofacitinib citrate, 3-{(3R,4R)-4-methyl-3-[methyl-(7H-pyrrolo[2,3-d]pyrimidin-4-yl)-amino]-piperidin-1-yl}-3-oxo-propionitrile mono-citrate salt, reference compound] yielded a Solubility of roughly 2 mg/mL.

Regarding `C[C@@H]1CCN(C(=O)CC#N)C[C@@H]1N(C)c1ncnc2[nH]ccc12` [Tofacitinib hydrochloride (APO-E), tofacitinib hydrochloride], in series [1], the Solubility amounted to 2235 mg/mL.

In series [1], `C[C@@H]1CCN(C(=O)CC#N)C[C@@H]1N(C)c1ncnc2[nH]ccc12` [Tofacitinib hydrochloride (APO-D), tofacitinib hydrochloride] had a Solubility of 2145 mg/mL.

For the compound `C[C@@H]1CCN(C(=O)CC#N)C[C@@H]1N(C)c1ncnc2[nH]ccc12` [Tofacitinib hydrochloride (APO-B), tofacitinib hydrochloride], the Solubility in series [1] is 2294 mg/mL.

As for `C[C@@H]1CCN(C(=O)CC#N)C[C@@H]1N(C)c1ncnc2[nH]ccc12` [Tofacitinib hydrochloride (APO-C), tofacitinib hydrochloride], in series [1], the Solubility was determined as 2235 mg/mL.

As for `C[C@@H]1CCN(C(=O)CC#N)C[C@@H]1N(C)c1ncnc2[nH]ccc12` [Tofacitinib hydrochloride (APO-A), tofacitinib hydrochloride], the Solubility in the series “physchem” (deionized water) was determined as 2500 mg/mL.
